Measurements taken from the NIST ThermoML archive (doi:10.1016/j.jct.2006.08.002).

Test: xn = mol fraction of the nth substance listed
Conditions: Fluid (supercritical or subcritical phases), Constant-volume piezometry

CCO [ethanol] + O
Conditions	mass density [kg/m3]
553.15 K, 25720 kPa, x1 = 0.5	555.9
553.15 K, 47100 kPa, x1 = 0.5	614.98
558.15 K, 8310 kPa, x1 = 0.8	115
558.15 K, 10340 kPa, x1 = 0.8	188.54
558.15 K, 11380 kPa, x1 = 0.8	260.63
558.15 K, 11700 kPa, x1 = 0.8	283.97
558.15 K, 13990 kPa, x1 = 0.8	382.62
558.15 K, 15170 kPa, x1 = 0.8	405.66
563.15 K, 6360 kPa, x1 = 0.5	55.95
563.15 K, 7510 kPa, x1 = 0.5	69.25
563.15 K, 8400 kPa, x1 = 0.5	84.4
563.15 K, 8830 kPa, x1 = 0.2	67.68
563.15 K, 9900 kPa, x1 = 0.5	117.41
563.15 K, 11080 kPa, x1 = 0.5	171.24
563.15 K, 12360 kPa, x1 = 0.5	327.3
563.15 K, 12940 kPa, x1 = 0.8	312.28
563.15 K, 12970 kPa, x1 = 0.8	312.28
563.15 K, 13290 kPa, x1 = 0.5	385.56
563.15 K, 14460 kPa, x1 = 0.8	367.22
563.15 K, 16510 kPa, x1 = 0.5	463.66
563.15 K, 23620 kPa, x1 = 0.5	521.79
568.15 K, 9040 kPa, x1 = 0.2	67.66
573.15 K, 5420 kPa, x1 = 0.8	53.14
573.15 K, 6590 kPa, x1 = 0.5	55.92
573.15 K, 7820 kPa, x1 = 0.5	69.21
573.15 K, 8780 kPa, x1 = 0.5	84.36
573.15 K, 8990 kPa, x1 = 0.8	114.92
573.15 K, 10460 kPa, x1 = 0.5	117.35
573.15 K, 11580 kPa, x1 = 0.8	188.4
573.15 K, 12050 kPa, x1 = 0.5	171.15
573.15 K, 12840 kPa, x1 = 0.8	243.61
573.15 K, 13010 kPa, x1 = 0.5	234.43
573.15 K, 13190 kPa, x1 = 0.8	260.43
573.15 K, 13610 kPa, x1 = 0.5	293.62
573.15 K, 13720 kPa, x1 = 0.8	283.75
573.15 K, 14410 kPa, x1 = 0.8	306.79
573.15 K, 14490 kPa, x1 = 0.8	312.12
573.15 K, 15660 kPa, x1 = 0.5	385.34
573.15 K, 16440 kPa, x1 = 0.8	367.02
573.15 K, 16820 kPa, x1 = 0.5	419.39
573.15 K, 17060 kPa, x1 = 0.5	421.07
573.15 K, 17150 kPa, x1 = 0.8	382.31
573.15 K, 17210 kPa, x1 = 0.5	424.29
573.15 K, 18650 kPa, x1 = 0.8	405.32
573.15 K, 20120 kPa, x1 = 0.5	463.38
573.15 K, 21340 kPa, x1 = 0.8	439.21
573.15 K, 22500 kPa, x1 = 0.8	451.39
573.15 K, 28040 kPa, x1 = 0.5	521.47
573.15 K, 39960 kPa, x1 = 0.5	567.95
573.15 K, 44900 kPa, x1 = 0.5	580.76
577.15 K, 45760 kPa, x1 = 0.8	552.13
578.15 K, 23390 kPa, x1 = 0.8	445.43
578.15 K, 35170 kPa, x1 = 0.8	514.74
578.15 K, 38000 kPa, x1 = 0.5	555.01
593.15 K, 50760 kPa, x1 = 0.5	567.2
598.15 K, 5820 kPa, x1 = 0.8	53.08
598.15 K, 7080 kPa, x1 = 0.5	55.85
598.15 K, 8560 kPa, x1 = 0.5	69.13
598.15 K, 9720 kPa, x1 = 0.5	84.26
598.15 K, 10060 kPa, x1 = 0.8	114.78
598.15 K, 11840 kPa, x1 = 0.5	117.21
598.15 K, 12030 kPa, x1 = 0.2	90.05
598.15 K, 13600 kPa, x1 = 0.8	188.16
598.15 K, 14290 kPa, x1 = 0.2	138.08
598.15 K, 15290 kPa, x1 = 0.2	221.72
598.15 K, 15460 kPa, x1 = 0.2	286.74
